From US4789667A, “External pharmaceutical composition and methods of use” (priority 1984, dated 1988)
Where two headings read alike, the source gives them in different places.

Tests used:
[1] = test system: carrageenan-induced edema; experiment: Carrageenan-induced edema inhibiting effect of betamethasone valerate ointment; format: in vivo; settings: rat paw, 0.15 part betamethasone valerate, 9.85 parts enhancer, vs gel ointment base
Procedure: The carrageenan-induced edema inhibiting effect of the ointment was examined in accordance with the method of E. Passarella [Arzneim, Forsch. 30 (I), No. 4, pages 647-651 (1980)]. Specifically, 0.1 ml of a 1% carrageenan suspension in 0.9% NaCl solution was injected into the tip of the right paw of each rat (body weight 150-175 g). The volume of the paw was measured before the administation of carrageenan and 3, 5 and 6 hours after the carrageenan administration by a mercury displacement device. The ointment was well rubbed into the inflamed site in an amount of 100 mg.
These ointments were applied to the tip of the paw, and their edema inhibiting effects were examined.
The percent edema inhibitions were calculated on the basis of the edema formation ratio of a rat to which only the gel ointment base was administered.

serum calcium level = format: in vivo
Procedure: This nasal drop contained 15 units/50 microliters of calcitonin. The nasal drop in a dose of 50 microliters was administered to the nasal cavity of a New Zealand rabbit (clean). The calcium concentration in the serum after administration was measured by using a calcium measuring kit (Iatoron Co.).
They were individually administered to the nasal cavity of a rabbit, and the concentration of calcium in the serum was measured.

[2] = Drug diffusion through egg shell membrane in diffusion cell with dodecyl L-pyroglutamate; settings: control without enhancer = 100; drug 0.05%, dodecyl L-pyroglutamate 1.0% in donor side, 37° C

| Relative amount of permeation after 30 minutes [2] | Structure (SMILES) | Edema inhibition ([1]; 3 hrs.) [%] | Edema inhibition ([1]; 6 hrs.) [%] | Edema inhibition ([1]; 9 hrs.) [%] | Percent decrease of the serum calcium level from that before administration (serum calcium level; 1 h) [%] | Percent decrease of the serum calcium level from that before administration (serum calcium level; 2 h) [%] | Percent decrease of the serum calcium level from that before administration (serum calcium level; 3 h) [%] | Percent decrease of the serum calcium level from that before administration (serum calcium level; 5 h) [%] |
| --- | --- | --- | --- | --- | --- | --- | --- | --- |
|  | CCCCCCCCCCOC(=O)C1CCC(=O)N1 (racemic) [Compound (102), Decyl DL-pyroglutamate] | 16.3 | 39.7 | 38.3 |  |  |  |  |
|  | CCCCCCCCCCCOC(=O)C1CCC(=O)N1 (racemic) [Compound (104), Undecyl DL-pyroglutamate] | 20.3 | 40.1 | 35.4 |  |  |  |  |
|  | CCCCCCCCCCCCOC(=O)C1CCC(=O)N1 (racemic) [Compound (106), Dodecyl DL-pyroglutamate] | 17.4 | 40.1 | 40.0 |  |  |  |  |
|  | CCCCCCCCCCCCCOC(=O)C1CCC(=O)N1 (racemic) [Compound (108), Tridecyl DL-pyroglutamate] | 18.8 | 35.3 | 38.1 |  |  |  |  |
|  | CCCCCCCCCCCCCCOC(=O)C1CCC(=O)N1 (racemic) [Compound (110), Tetradecyl DL-pyroglutamate] | 17.4 | 38.0 | 38.6 |  |  |  |  |
|  | O=C1CCC(C(=O)O)N1 (racemic) [DL-Pyroglutamic acid] | 10.8 | 11.4 | 15.2 | 2.0 | 1.0 | 0 | 0 |
|  | CCCCCCCCCCCCCCCCCCCCOC(=O)C1CCC(=O)N1 (racemic) [Eicosanyl DL-pyroglutamate] | 9.2 | 11.1 | 16.7 |  |  |  |  |
|  | CCOC(=O)C1CCC(=O)N1 (racemic) [Ethyl DL-pyroglutamate] | 9.5 | 10.2 | 12.1 |  |  |  |  |
|  | CCCCCCCCCCCCCCCCCOC(=O)C1CCC(=O)N1 (racemic) [Heptadecyl DL-pyroglutamate] | 10.5 | 12.8 | 14.8 |  |  |  |  |
|  | CCCCCCCOC(=O)C1CCC(=O)N1 (racemic) [Heptyl DL-pyroglutamate] | 10.7 | 10.9 | 9.5 |  |  |  |  |
|  | CCCCCCOC(=O)C1CCC(=O)N1 (racemic) [Hexyl DL-pyroglutamate] | 11.2 | 11.5 | 11.0 |  |  |  |  |
|  | CCCCCCCCCCCCCCCCCCOC(=O)C1CCC(=O)N1 (racemic) [Octadecyl DL-pyroglutamate] | 9.6 | 13.0 | 15.6 |  |  |  |  |
|  | CCCCCCCCCCOC(=O)[C@@H]1CCC(=O)N1 [Compound (112), Decyl L-pyroglutamate] | 18.6 | 38.9 | 37.4 |  |  |  |  |
|  | CCCCCCCCCCCOC(=O)[C@@H]1CCC(=O)N1 [Compound (114), Undecyl L-pyroglutamate] | 20.2 | 38.5 | 37.3 |  |  |  |  |
|  | CCCCCCCCCCCCOC(=O)[C@@H]1CCC(=O)N1 [Compound (116), Dodecyl L-pyroglutamate] | 19.8 | 40.2 | 40.3 |  |  |  |  |
|  | CCCCCCCCCCCCCOC(=O)[C@@H]1CCC(=O)N1 [Compound (118), Tridecyl L-pyroglutamate] | 20.0 | 38.5 | 36.8 |  |  |  |  |

| Relative amount of permeation after 30 minutes [2] | Structure (SMILES) | Edema inhibition ([1]; 3 hrs.) [%] | Edema inhibition ([1]; 6 hrs.) [%] | Edema inhibition ([1]; 9 hrs.) [%] | Percent decrease of the serum calcium level from that before administration (serum calcium level; 1 h) [%] | Percent decrease of the serum calcium level from that before administration (serum calcium level; 2 h) [%] | Percent decrease of the serum calcium level from that before administration (serum calcium level; 3 h) [%] | Percent decrease of the serum calcium level from that before administration (serum calcium level; 5 h) [%] |
| --- | --- | --- | --- | --- | --- | --- | --- | --- |
|  | CCCCCCCCCCCCCCOC(=O)[C@@H]1CCC(=O)N1 [Compound (120), Tetradecyl L-pyroglutamate] | 17.8 | 38.5 | 39.6 |  |  |  |  |
|  | CCC=CCCCCCCCCOC(=O)[C@@H]1CCC(=O)N1 [Compound (220), 9-Dodecenyl L-pyroglutamate] | 18.3 | 37.7 | 36.9 |  |  |  |  |
|  | CC1CCC(C(C)C)C(OC(=O)[C@@H]2CCC(=O)N2)C1 (stereo partly drawn) [Compound (308), Menthyl L-pyroglutamate] | 17.0 | 38.0 | 40.2 |  |  |  |  |
|  | CC1(C)C2CCC1(C)C(OC(=O)[C@@H]1CCC(=O)N1)C2 (stereo partly drawn) [Compound (310), Bornyl L-pyroglutamate] | 17.0 | 39.4 | 40.2 |  |  |  |  |
|  | CCCCCCCCCCCCCCCCCCCCOC(=O)[C@@H]1CCC(=O)N1 [Eicosanyl L-pyroglutamate] | 9.3 | 10.5 | 15.6 |  |  |  |  |
| 203 | C[C@]12CC[C@@H]3c4ccc(O)cc4CC[C@H]3[C@@H]1CC[C@@H]2O [Estradiol] |  |  |  |  |  |  |  |
|  | CCOC(=O)[C@@H]1CCC(=O)N1 [Ethyl L-pyroglutamate] | 10.4 | 12.7 | 17.2 |  |  |  |  |
| 221 | COC1=CC(=O)C[C@@H](C)[C@]12Oc1c(Cl)c(OC)cc(OC)c1C2=O [Griseofulvin] |  |  |  |  |  |  |  |
|  | CCCCCCCCCCCCCCCCCOC(=O)[C@@H]1CCC(=O)N1 [Heptadecyl L-pyroglutamate] | 11.2 | 10.6 | 16.5 |  |  |  |  |
|  | CCCCCCCOC(=O)[C@@H]1CCC(=O)N1 [Heptyl L-pyroglutamate] | 9.3 | 12.8 | 13.7 |  |  |  |  |
|  | CCCCCCOC(=O)[C@@H]1CCC(=O)N1 [Hexyl L-pyroglutamate] | 10.0 | 11.5 | 13.8 |  |  |  |  |
| 220 | COc1ccc2c(c1)c(CC(=O)O)c(C)n2C(=O)c1ccc(Cl)cc1 [Indomethacin] |  |  |  |  |  |  |  |
|  | O=C1CC[C@@H](C(=O)O)N1 [L-Pyroglutamic acid] | 10.3 | 11.2 | 16.3 | 1.9 | 0.7 | 0 | 0 |
|  | CCCCCCCCCCCCCCCCCCOC(=O)[C@@H]1CCC(=O)N1 [Octadecyl L-pyroglutamate] | 10.0 | 11.4 | 14.4 |  |  |  |  |
| 166 | CCCCC[C@H](O)/C=C/[C@@H]1[C@@H](C/C=C\CCCC(=O)O)[C@@H](O)C[C@H]1O [Prostaglandin F2] |  |  |  |  |  |  |  |

| Structure (SMILES) | Relative amount of permeation after 30 minutes [2] | Edema inhibition ([1]; 3 hrs.) [%] | Edema inhibition ([1]; 6 hrs.) [%] | Edema inhibition ([1]; 9 hrs.) [%] | Percent decrease of the serum calcium level from that before administration (serum calcium level; 1 h) [%] | Percent decrease of the serum calcium level from that before administration (serum calcium level; 2 h) [%] | Percent decrease of the serum calcium level from that before administration (serum calcium level; 3 h) [%] | Percent decrease of the serum calcium level from that before administration (serum calcium level; 5 h) [%] |
| --- | --- | --- | --- | --- | --- | --- | --- | --- |
| CN(C)CCCN1c2ccccc2Sc2ccc(Cl)cc21 [Chlorpromazine] | 124 |  |  |  |  |  |  |  |
| C[C@](N)(Cc1ccc(O)c(O)c1)C(=O)O [Methyldopa] | 153 |  |  |  |  |  |  |  |
| O=C(O)c1ccccc1O [Salicyclic acid] | 208 |  |  |  |  |  |  |  |
